Experimental data reported in US10703724B2, “Crystalline forms of {[5-(3-chlorophenyl)-3-hydroxypyridine-2-carbonyl] amino} acetic acid and processes for preparation thereof” (Crystal Pharmaceutical (Suzhou) Co., Ltd., priority 2016, dated 2020).
≈ marks a conversion by molar mass, not a printed value. Entries after “also recorded” stand apart in the source; their conditions may differ.

What was measured:
[1] = Solubility in SGF (suspension rotated, filtrate concentration by HPLC); format: physicochemical; conditions: for Solubility in SGF: SGF (simulated gastric fluids); for solubility in SGF compared with Form A in WO2015073779: SGF at 1 h, 4 h and 24 h
Protocol: Certain amount of Form CS1 in the present disclosure and Form A in WO2015073779 were weighted into vials and suspended in SGF (Simulated Gastric Fluids). The systems were rotated on the rotator at a rate of 25 r/min. After equilibrated for 1 h, 4 h and 24 h, the suspension was separated through 0.45 μm PTFE centrifugal filter and the filtrate was collected. The concentration of the filtrates was measured by HPLC.
(§1) Certain amount of Form CS8 in the present disclosure and Form A in WO2015073779 was weighted into vials and then suspended in SGF (Simulated gastric fluids) and water. The systems were rotated on the rotator at a rate of 25 r/min. After equilibrated for 1 h, 4 h and 24 h, the suspension was separated through 0.45 μm PTFE centrifugal filter and the filtrate was collected. The concentration of the filtrates was measured by HPLC.

[2] = Storage stability of the crystalline form (XRPD before and after storage); format: physicochemical; conditions: for Solid Form after storage: XRPD
Protocol: Form CS1 in the present disclosure was stored under 25° C./60% RH and 40° C./75% RH for 1 month. The XRPD pattern was collected before and after storage, and the XRPD pattern overlay is depicted in FIG. 10.
Accelerated experiment: Form CS2 was stored under 25° C./60% RH, 40° C./75% RH and 60° C./75% RH for 1 month. The XRPD pattern was collected before and after storage, and the overlay is depicted in FIG. 11.
Form CS8 of the present disclosure was stored under 25° C./60% RH, 40° C./75% RH and 60° C./75% RH for 20 days.

[3] = Stability comparison experiment: slurry in water at room temperature, about 40 days; format: physicochemical
Protocol: Stability comparison experiment: about 4 mg of Form CS2 and Form A in WO2015073779 was weighted into a 1.5 mL glass vial and 1.0 mL of water was added into the vial. The solid form of the initial sample was tested. After stirring at a rate of 500 r/min at room temperature for about 40 days, the solid form of the sample was tested again. The XRPD pattern overlay is depicted in FIG. 13.

[4] = as disclosed in WO2015073779; cited from earlier work
[5] = Solubility in water (suspension rotated, filtrate concentration by HPLC); format: physicochemical
Protocol: as §1

[6] = Hygroscopicity by dynamic vapor sorption (DVS); format: physicochemical
Protocol: Dynamic Vapor Sorption (DVS) was measured via an SMS (Surface Measurement Systems Ltd.) intrinsic DVS instrument. Its control software is DVS-Intrinsic control software, and its analysis software is DVS-Intrinsic Analysis software. Typical Parameters for DVS test are as follows: • Temperature: 25° C. • Gas and flow rate: N2, 200 mL/min • dm/dt: 0.002%/min • RH range: 0% RH to 95% RH
Dynamic vapor sorption (DVS) was applied to test hygroscopicity of Form CS2 with 10 mg of sample.
Dynamic vapor sorption (DVS) was applied to test hygroscopicity of Form CS8 with 10 mg of sample and the DVS curve is depicted in FIG. 14. The weight gain of Form CS8 under 80% RH is 0.06%, which means Form CS8 is non hygroscopic or almost non hygroscopic.
Description and definition of hygroscopicity in the general principle 9103 of Chinese Pharmacopoeia: • deliquescent: Sufficient water is absorbed to form a liquid; • very hygroscopic: Increase in mass is equal to or greater than 15 percent; • hygroscopic: Increase in mass is less than 15 percent and equal to or greater than 2 percent; • slightly hygroscopic: Increase in mass is less than 2 percent and equal to or greater than 0.2 percent. • non hygroscopic or almost non hygroscopic: Increase in mass is less than 0.2%.

[7] = Mechanical stability experiment: manual grinding for 5 minutes in a mortar; format: physicochemical; conditions: XRPD
Protocol: Mechanical stability experiment: Form CS2 was manually ground for 5 minutes in a mortar. The XRPD pattern collected before and after grinding is depicted in FIG. 12.

[8] = Pressure stability: tableting under 3 KN, 7 KN and 14 KN, XRPD before and after; format: physicochemical; conditions: 7 KN and 14 KN pressure
Text: Form CS2 was compressed using an ENERPAC manual tablet press under 3 KN, 7 KN and 14 KN pressure with φ6 mm round tooling (to ensure isotropy of the tablet). XRPD pattern overlay depicted in FIG. 15 was collected by a […] Panalytical Empyrean X-ray diffractometer before and after tableting.

[9] = 25° C./60% RH, 40° C./75% RH and 60° C./75% RH

Structure (SMILES)	Solubility in SGF ([1]; equilibrated 1 h) [µg/mL]	Solubility in SGF ([1]; equilibrated 4 h) [µg/mL]	Solubility in SGF ([1]; equilibrated 24 h) [µg/mL]	solubility in SGF compared with Form A in WO2015073779 [1]	Solid Form after storage ([2]; 25° C./60% RH, 1 month)	Solid Form after storage ([2]; 40° C./75% RH, 1 month)	time the form keeps stable [2, 9]	further results
O=C(O)CNC(=O)c1ncc(-c2cccc(Cl)c2)cc1O [Form A in WO2015073779, {[5-(3-chlorophenyl)-3-hydroxypyridine-2-carbonyl]amino} acetic acid, reference compound]	8.5 (≈ 27.7 µM)	8.6 (≈ 28 µM)	3.8 (≈ 12.4 µM)					solid form after slurry in water ([3]; water, 500 r/min, room temperature, XRPD): almost completely converted to Form CS2
O=C(O)CNC(=O)c1ncc(-c2cccc(Cl)c2)cc1O [Form B, {[5-(3-chlorophenyl)-3-hydroxypyridine-2-carbonyl]amino} acetic acid]								conversion in slurry at high temperature [4]: may convert to Form A

More lines, main results first:

Solubility in SGF ([1]; equilibrated 1 h) [µg/mL]	Solubility in SGF ([1]; equilibrated 4 h) [µg/mL]	Solubility in SGF ([1]; equilibrated 24 h) [µg/mL]	solubility in SGF compared with Form A in WO2015073779 [1]	Solid Form after storage ([2]; 25° C./60% RH, 1 month)	Solid Form after storage ([2]; 40° C./75% RH, 1 month)	time the form keeps stable [2, 9]	Structure (SMILES)	further results
23 (≈ 75 µM)	26 (≈ 84.8 µM)	19 (≈ 61.9 µM)	higher	Form CS1, no form change	Form CS1, no form change		O=C(O)CNC(=O)c1ncc(-c2cccc(Cl)c2)cc1O [Form CS1, {[5-(3-chlorophenyl)-3-hydroxypyridine-2-carbonyl]amino} acetic acid]	time the form keeps stable ([2]; 25° C./60% RH and 40° C./75% RH): at least 1 month
20 (≈ 65.2 µM)	22 (≈ 71.7 µM)	33 (≈ 108 µM)	higher			at least 20 days	O=C(O)CNC(=O)c1ncc(-c2cccc(Cl)c2)cc1O [Form CS8, {[5-(3-chlorophenyl)-3-hydroxypyridine-2-carbonyl]amino} acetic acid]	solubility in water compared with Form A in WO2015073779 [5]: higher; weight gain at 90% RH ([6]; DVS, 25° C.): 0.08%; weight gain at 80% RH ([6]; DVS, 25° C., 10 mg of sample): 0.06%; hygroscopicity class (Chinese Pharmacopoeia general principle 9103) ([6]; from weight gain under 80% RH): non hygroscopic or almost non hygroscopic (Increase in mass is less than 0.2%)
				Form CS2, no form change	Form CS2, no form change	at least 1 month	O=C(O)CNC(=O)c1ncc(-c2cccc(Cl)c2)cc1O [Form CS2, {[5-(3-chlorophenyl)-3-hydroxypyridine-2-carbonyl]amino} acetic acid]	Solid Form after storage ([2]; 25° C./60% RH, 20 days): Form CS8, no form change; Solid Form after storage ([2]; 40° C./75% RH, 20 days): Form CS8, no form change; Solid Form after storage ([2]; 60° C./75% RH, 1 month): Form CS2, no form change; Solid Form after storage ([2]; 60° C./75% RH, 20 days): Form CS8, no form change; stability in water compared with Form A in WO2015073779 ([3]; slurry in water): more stable; crystal structure after manual grinding [7]: doesn't change; weight gain from 40% RH to 80% RH ([6]; DVS, 25° C., 10 mg of sample): 0.11%; hygroscopicity (in words) ([6]; from weight gain 40% RH to 80% RH): low hygroscopic; form change after tableting [8]: no form change; also recorded: stable
